EP0563345B1, “NOVEL 4-ARYLPIPERAZINES AND 4-ARYLPIPERIDINES” (MCNEILAB, INC., priority 1991, dated 1993)
Where two headings read alike, the source gives them in different places.

How the values were obtained:
Male, Fischer 344 rats = assay: Block of Conditioned Avoidance Responding (Rat) test (CAR); settings: for CAR 5 mg/kg IP Administration (% change CAR) / CAR 15 mg/kg IP Administration (% change CAR): negative number = blockade of CAR
Source text: Apparatus: Rat operant chambers, housed within sound attenuated booths, both from Capden Instruments Ltd., were used in this test. The test chamber (8" H x […] D) is constructed of aluminum and plexiglass with floor grid bars of stainless-steel (1/8" O.D.) spaced 9/16" apart. A stainless-steel operation level 1-1/2" wide projects 3/4" into the chamber and is positioned 2-2/8" above the grid floor. The shock stimulus is delivered via the grid floor by a Coulbourn Instruments solid state module. The parameters of the test and the collection of data are controlled automatically.
The rats are trained for two weeks to approach criterion levels in the avoidance test (90% avoidance rate). One-hour training sessions are run at about the same time each day for four or five days a week. The training session consists of 120 trials, with the conditioned stimuli presented every 30 sec. A trial begins with presentation of the conditioned stimuli (a light and a tone). If the rat responds by depressing the operant lever during the 15-second presentation of the conditioned stimuli, the trial is terminated and the animal is credited with a CAR. Failure to respond during the conditioned stimuli causes the presentation of the unconditioned stimulus (UCS), a 0.7 mA shock which is accompanied by a light and tone for five seconds. If the rat depressed the lever within the ten-second period, the shock and trial are terminated and an escape response recorded. If the rat fails to depress the lever during the UCS (shock), the trial is terminated after ten seconds of shock and the absence of a response is scored as a failure to escape. Intertrial level presses have no effect. If a rat performs at the 90% CAR level for two weeks, it is then run twice a week on the test schedule (see below) until baseline performance stabilized.
Trained rats are run in a one-hour session on two consecutive days at the same time and in the same test chamber each day. The sessions consist of 60 trials, one every minute. The conditioned stimuli are presented for 15 sec (maximum) and the unconditioned stimuli five sec (maximum). On Day 1, a vehicle solution is administered to the rats at a time preceding the trial run corresponding to the pretreatment time for the test compound. The route of administration and the volume of vehicle are also matched to that of the test compound.
The percent change in CAR on the drug treatment day compared to vehicle pretreatment day is the key measure. The percent change (% change) in CAR is determined using the following formula: % change CAR = ((% CAR for Day 2/% CAR for Day 1) x 100)-100 [formula]
A negative number indicates a blockade of CAR, whereas a positive number would indicate increased CAR. The test results are reported as the mean % change for the group of rats. Failure to escape, a measure of the general sedative potential of the compound, was calculated for each animal as follows: % Failures = # of Failures to Escape/# of trials [formula]
The % failures, viz., loss of escape, is also reported as a group mean. Failures to escape are monitored closely and a session is terminated if ten failures occurred.
In the Tables and formulas therein, OiPr is isopropoxy, Me is methyl, MeO is methoxy, Et is ethyl, Ph is phenyl, n-Bu is normal butyl, cC6H11 is cyclohexyl, BOC is t-butyloxycarbonyl, Ac is acetyl, and NT is not tested in that partcular test. The escape loss numbers are shown at CAR 5 mg/kg unless otherwise noted.

Male Charles-River rats = assay: Rat Glass Bead Test (propulsive motility of the distal colon); format: in vivo; settings: mean expulsion time of glass bead
Procedure: The rat glass bead test is used to evaluate the action of compounds on propulsive motility of the distal colon. Male Charles-River rats weighing 50-90 grams are fasted for at least 18 hours in individual cages with water provided. Groups of rats are then dosed by the indicated route at the appropriate pretreatment time. A 4 mm glass bead is then inserted 3.5 cm into the distal colon through the anus using a 4 mm diameter glass rod. Rats are then placed in open top glass jars and observed for 60 minutes. The time for expulsion of the bead is noted for each rat. Rats not expelling the bead after 60 minutes are necropsied and the presence of the bead in the colon confirmed. […] Statistical analysis is done using one way analysis of variance and Fisher's LSD comparison. A probability of less than 0.05 is considered to be statistically significant.

[1] = target: T1, D-2 (dopamine-2) receptors (Rattus norvegicus, UniProt P61169); assay: biochemical; format: binding, male, Wistar rats
T1 construct: The D2 assay employed a P2 fraction from the striatum, the ligand ^3H-spiperone at a concentration of 0.05 nM; from tissue; host or cells: rat striatum, P2 fraction (synaptosomal membranes), male Wistar rats
T1 sequence (P61169 whole entry): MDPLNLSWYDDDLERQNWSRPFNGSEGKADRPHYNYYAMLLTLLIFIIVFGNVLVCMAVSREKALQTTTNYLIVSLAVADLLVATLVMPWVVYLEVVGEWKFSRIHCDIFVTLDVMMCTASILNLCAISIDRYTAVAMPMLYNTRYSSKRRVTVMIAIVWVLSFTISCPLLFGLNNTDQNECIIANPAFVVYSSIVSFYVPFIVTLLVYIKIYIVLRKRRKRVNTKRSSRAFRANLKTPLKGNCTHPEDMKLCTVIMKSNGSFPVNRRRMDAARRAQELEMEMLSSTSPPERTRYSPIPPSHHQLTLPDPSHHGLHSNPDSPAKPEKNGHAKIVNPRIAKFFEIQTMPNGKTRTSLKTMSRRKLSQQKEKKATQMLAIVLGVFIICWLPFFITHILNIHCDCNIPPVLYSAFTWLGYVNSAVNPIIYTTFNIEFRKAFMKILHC
Procedure: The dopamine D2 binding activity of compounds was determined using a P2 fraction (synaptosomal membranes) prepared from male, Wistar rats.
The data from this assay were analyzed by calculating the percent inhibition of the binding of the tritiated ligands by given concentrations of the test compound. Kl values, where given, were obtained from the logit analysis of concentration-inhibition curves.

[2] = rat striatum P2 fraction, 3H-spiperone 0.05 nM, read-out: Receptor Binding (Ki nM) D2

| Structure (SMILES) | CAR 5 mg/kg IP Administration (% change CAR) (Male, Fischer 344 rats) | (Escape Loss) % failures to escape (Male, Fischer 344 rats; at CAR 5 mg/kg IP) | CAR 15 mg/kg IP Administration (% change CAR) (Male, Fischer 344 rats) | (Escape Loss) % failures to escape (Male, Fischer 344 rats; at CAR 15 mg/kg IP) | Ki [1, 2] | further results |
| --- | --- | --- | --- | --- | --- | --- |
| CC(C)Oc1cc(F)ccc1N1CCN(Cc2cccc(C(=O)N3CCCCC3)c2)CC1 [Compound 78] | -82% | 4% |  |  |  | Glass bead expulsion time (Male Charles-River rats; IP, 1.0 mg/kg): 28 min |
| CC(=O)N(C)C(=O)c1cccc(CN2CCN(c3ccccc3OC(C)C)CC2)c1 [Compound 73] | -48% | 22% |  |  |  | Glass bead expulsion time (Male Charles-River rats; PO, 40.0 mg/kg): 25 min |
| CC(C)Oc1ccccc1N1CCN(Cc2cccc(C(=O)N(C)C3CCCCC3)c2)CC1 [Compound 72] | -99% | 21% |  |  |  | Glass bead expulsion time (Male Charles-River rats; IP, 1.0 mg/kg): 29 min |
| CC(C)Oc1ccccc1N1CCN(Cc2cccc(C(=O)N3CCCCCCC3)c2)CC1 [Compound 55] | -93% | 27% |  |  |  | Glass bead expulsion time (Male Charles-River rats; IP, 1.0 mg/kg): 13 min |
| O=C(c1cccc(CN2CCN(c3cccc(C(F)(F)F)c3)CC2)c1)N1CCCCC1 [Compound 92] |  |  | -72% | 3% |  | Glass bead expulsion time (Male Charles-River rats; IP, 1.0 mg/kg): 17 min |
| N#Cc1ccccc1N1CCN(Cc2cccc(C(=O)N3CCCCC3)c2)CC1 [Compound 90] | -74% | 5% |  |  |  | Glass bead expulsion time (Male Charles-River rats; IP, 1.0 mg/kg): 27 min |
| CC(C)Oc1ccccc1N1CCN(Cc2cccc(C(=O)NC3CCCCC3)c2)CC1 [Compound 71] |  |  | -86% | 0% |  | Glass bead expulsion time (Male Charles-River rats; IP, 1.0 mg/kg): 23 min |
| CC(C)Oc1ccccc1N1CCN(Cc2cccc(C(=O)N3CCC[C@H]3C(=O)OCc3ccccc3)c2)CC1 [Compound 13] |  |  | -4% | 0% | 10 nM |  |
| O=C(c1cccc(CN2CCN(c3ncccn3)CC2)c1)N1CCc2ccccc21 [Compound 23] |  |  | -62% | 9% | > 1000 nM |  |
| CC(C)Oc1ccccc1N1CCN(Cc2cccc(C(=S)N3CCCCC3)c2)CC1.Cl [Compound 1, 1-[3-[[4-[2-(1-Methylethoxy)phenyl]-1-piperazinyl]methyl]thiobenzoyl]piperidine Hydrochloride] | -71% | 20% |  |  | 8 nM |  |
| CC(=O)Nc1ccc(CN2CCN(c3ccccc3OC(C)C)CC2)cc1C(=O)N1CCCCC1 [Compound 28] |  |  | -100% | 17% | 29 nM |  |
| CC(C)Oc1ccccc1N1CCN(Cc2cccc(S(=O)(=O)N3CCCC3)c2)CC1 [Compound 106] | -27% | 0% |  |  | 196 nM |  |
| CC(C)Oc1ccccc1N1CCN(Cc2cccc(C(=O)N3CCCCCCC3=O)c2)CC1 [Compound 67] | -28% | 7% |  |  | 10.2 nM |  |
| CC(C)Oc1ccccc1N1CCN(Cc2cccc(C(=O)N3CCN(c4ccccc4OC(C)C)CC3)c2)CC1 [Compound 50] | 0% | 1% |  |  | 171 nM |  |
| CC(C)Oc1ccccc1N1CCN(Cc2cccc(C(=O)N3CCC4(CC3)OCCO4)c2)CC1 [Compound 45] | -95% | 20% |  |  |  | Ki [1]: 20 nM |
| COc1ccc(OC)c(N2CCN(Cc3cccc(C(=O)N4CCCCC4)c3)CC2)c1 [Compound 46] | -66% | 48% |  |  | 592 nM |  |
| CC(C)Oc1ccccc1C1CCN(Cc2cccc(C(=O)N3CCCCC3)c2)CC1.Cl [Compound 38, 1-[3-[[4-[2-(1-Methylethoxy)phenyl]-1-piperidinyl]methyl]benzoyl]-piperidine hydrochloride] | -92% | 5% |  |  | 2.8 nM |  |
| CCOC(=O)C1CCN(C(=O)c2cccc(CN3CCN(c4ccccc4OC(C)C)CC3)c2)CC1 [Compound 42] | -18% | 0% |  |  | 121 nM |  |
| CC(C)Oc1ccccc1N1CCN(Cc2cccc(C(=O)NCCCCCCNC(=O)OC(C)(C)C)c2)CC1 [Compound 98] |  |  | -8% | 0% | 88 nM |  |
| CCN1CCCC1CNC(=O)c1cccc(CN2CCN(c3ccccc3OC(C)C)CC2)c1 (stereo not shown) [Compound 76] |  |  | -75% | 0% | 13.9 nM |  |
| CC(C)Oc1ccccc1N1CCN(Cc2cccc(C(=O)N3CCCCC3CO)c2)CC1 (stereo not shown) [Compound 21] |  |  | -99% | 43% | 5.2 nM |  |
| CC(C)Oc1ccccc1N1CCN(Cc2cccc(C(=O)Nc3ccc(F)cc3)c2)CC1 [Compound 75] |  |  |  |  | ~30 nM | CAR IP Administration (% change CAR) at 30 mg/kg (Male, Fischer 344 rats; 30 mg/kg IP): -1%; (Escape Loss) % failures to escape (Male, Fischer 344 rats; at CAR 30 mg/kg IP): 0% |
| CC(C)Oc1ccccc1N1CCN(Cc2ccc(N)c(C(=O)N3CCCCC3)c2)CC1 [Compound 17] |  |  | -100% | 87% | 6.4 nM |  |
| CCOC(=O)C1CCCCN1C(=O)c1cccc(CN2CCN(c3ccccc3OC(C)C)CC2)c1 (stereo not shown) [Compound 19] |  |  | -97% | 46% | 4.1 nM |  |
| CC(C)Oc1ccccc1N1CCN(Cc2cccc(C(=O)N3CCC[C@H]3CO)c2)CC1 [Compound 16] |  |  | -99% | 35% | 5.1 nM |  |
| C[C@@H]1CCC[C@H](C)N1C(=O)c1cccc(CN2CCN(c3ccc(Cl)c(Cl)c3)CC2)c1 [Compound 14] |  |  | -63% | 3% | 6.5 nM |  |
| CC(C)Oc1ccccc1N1CCN(Cc2cccc(C(=O)N(C)Cc3ccccc3)c2)CC1 [Compound 74] | -23% | 1% |  |  | 13 nM |  |
| CC(C)Oc1ccccc1N1CCN(Cc2cccc(C(=O)N3CCOCC3)c2)CC1 [Compound 56] |  |  |  |  |  | Glass bead expulsion time (Male Charles-River rats; IP, 1.0 mg/kg): 15 min |
